# In US20210386783A1, “USE OF GLUCOSYLCERAMIDE SYNTHASE GENE-DEFICIENT T CELL AND THERAPEUTIC UTILIZATION THEREOF” (SCHOOL CORPORATION, AZABU VETERINARY MEDICINE EDUCATIONAL …, priority 2018, published 2021):
# How the values were obtained:
# [1] = biological target: T1, UGCG (Mus musculus, UniProt O88693); test: Expression level of ganglioside GM3 in isolated T cells after in vitro PPMP treatment (flow cytometer); type: cell-based; settings: isolated mouse spleen T cells, PPMP 0, 1, 5 and 10 μM for 24 hours
# T1 construct: endogenous in cells; host or cells: primary T cells isolated from mouse spleen
# T1 sequence (O88693 1-394): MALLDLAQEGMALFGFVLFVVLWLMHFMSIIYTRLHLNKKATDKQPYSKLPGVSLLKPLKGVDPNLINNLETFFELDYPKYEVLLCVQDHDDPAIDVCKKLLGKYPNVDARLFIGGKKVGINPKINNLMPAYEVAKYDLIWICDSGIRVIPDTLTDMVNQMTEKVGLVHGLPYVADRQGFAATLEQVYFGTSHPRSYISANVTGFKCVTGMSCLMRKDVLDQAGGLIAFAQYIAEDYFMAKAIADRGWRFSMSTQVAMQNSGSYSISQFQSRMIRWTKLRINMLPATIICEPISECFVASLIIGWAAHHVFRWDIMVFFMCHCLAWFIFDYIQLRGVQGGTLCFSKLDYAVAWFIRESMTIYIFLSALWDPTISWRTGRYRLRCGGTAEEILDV
# Protocol: (§1) The isolated T cells were treated with PPMP in concentrations of 0, 1, 5 and 10 μM for 24 hours, and then measuring the expression level of GM3 (left view) and the proliferation rate of the cells (right view).
# (§2) Using Dynabeads Untouched Mouse T Cells kit (Thermo fisher Scientific), T cells were isolated from the excised spleen, and the T cells were then activated by IL-2 (30 U/mL) and Dynabeads Mouse T-Cell activator CD3-CD28 (Thermo fisher Scientific). Thereafter, the T cells were recovered over time, and the expression of a PD-1 gene was then analyzed by qPCR. With regard to the proliferation rate of the T cells after the activation, the proliferation rate was increased in the cells derived from the T cell-specific UGCG gene-deficient mice (FIG. 7A).
# (§3) The T cells were isolated in the same manner as that of the above 3, and the isolated T cells were then treated with PPMP used as a UGCG inhibitor in various concentrations for 24 hours. Thereafter, the expression level of ganglioside GM3 was analyzed using a flow cytometer. […] Moreover, in order to examine the toxicity of the PPMP treatment on T cells, the proliferation rate of the T cells was measured using a cell proliferation/cytotoxicity assay kit (CK-1, Dojindo).
# [2] = system: T cells; test: Proliferation rate / toxicity of PPMP treatment on T cells (cell proliferation/cytotoxicity assay kit CK-1, Dojindo); type: cell-based, mouse; settings: isolated T cells
# Protocol: as §1, §2, §3
# [3] = system: neuroblastoma cell line; settings: combination with fenretinide; cited from earlier work
# [4] = system: acute leukemia-derived cell line ALL; settings: combination with fenretinide; cited from earlier work
compound,measurement,setting,value
"CCCCCCCCCCCCCCCC(=O)NC(CN1CCOCC1)C(O)c1ccccc1 (centres unmarked) [PPMP, 1-phenyl-2-hexadecanoylamino-3-morpholino-1-propanol]",expression level of ganglioside GM3,[1],reduced in a PPMP concentration-dependent manner
same,proliferation rate of the T cells,"[2]; PPMP 0, 1, 5 and 10 μM for 24 hours, concentration range of reducing glycolipids",did not influence on the proliferation rate
same,toxicity of PPMP on the cells,[2]; PPMP treatment for 24 hours,low
same,effect on cytotoxicity of fenretinide (4-HPR),[3],synergistically enhances the cytotoxicity
same,effect on cytotoxicity of fenretinide (4-HPR),[4],synergistically enhances the cytotoxicity
